Source: patent US20050239758A1, “Hormone treatment of multiple sclerosis” (priority 2004, published 2005)

B1: myelin basic protein (protein, UniProt P02686 1-304, looked up)
Myelin basic protein: MGNHAGKRELNAEKASTNSETNRGESEKKRNLGELSRTTSEDNEVFGEADANQNNGTSSQDTAVTDSKRTADPKNAWQDAHPADPGSRPHLIRLFSRDAPGREDNTFKDRPSESDELQTIQEDSAATSESLDVMASQKRPSQRHGSKYLATASTMDHARHGFLPRHRDTGILDSIGRFFGGDRGAPKRGSGKDSHHPARTAHYGSLPQKSHGRTQDENPVVHFFKNIVTPRTPPPSQGKGRGLSLSRFSWGAEGQRPGFGYGGRASDYKSAHKGFKGVDAQGTLSKIFKLGGRDSRSGSPMARR

How the values were obtained:
[1] = tested on: multiple sclerosis symptoms; assay: Clinical case: daily sublingual dilute progesterone in a patient with multiple sclerosis; format: in vivo, human
Procedure: An adult human presented with a diagnosis of multiple sclerosis (MS) from a group of neurologists specializing in MS. They had confirmed the diagnosis with magnetic resonance imaging (MRI) scans showing demylination of major nerves. They were evaluated for hormone allergy therapy by assessing their anti-hormone antibodies and found to have elevated levels of anti-progesterone IgG and IgM antibodies. They then received progesterone 1:10 sublingual treatment, daily. Within a month of their initial diagnosis, they rated their symptoms at a 10 on a scale of 1-10, with 10 representing the worst symptoms experienced. A year after diagnosis, but before beginning low dosage hormone therapy, they rated their symptoms at a 5. They then began receiving daily sublingual progesterone (1:10) treatment. They reported an immediate reduction of their symptoms to a 3 or 4. After over a year of therapy, they reported their symptoms to be generally about a 2 with days where they have been a 0 or 1. On one occasion, the subject ran out of drops and, therefore, temporarily discontinued therapy.

serum anti-estrogen IgG = assay: Competition ELISA: absorption of serum anti-estrogen IgG with specific and non-specific antigens; format: binding, human; conditions: for Percent inhibition of serum anti-estrogen IgG after absorption: absorption with 250 μg/mL antigen, NS = non-significant; for Inhibition of anti-estrogen binding to estrogen (IgG): antigen in liquid phase, range over the samples; for Absorption of serum IgG antibodies by antigen added to the liquid phase: competition ELISA, result in words
Procedure: (§1) Enzyme-linked immunosorbent assay (ELISA) was used for testing antibodies against estrogen and progesterone in the sera of patients with premenstrual asthma and with control subjects. Different rows of microtiter plates (Costar) were coated either with 100 μl of BSA concentration of 10 μg/mL or 100 μl of estrogen-BSA or progesterone-BSA optimal concentration of 10 μg/mL in 0.1 m carbonate-bicarbonate buffer (pH 9.5). Plates were incubated overnight at 4° C. and then washed three times with […] of Tris-buffered saline (TBS) containing 0.05% Tween 20, pH 7.4. […] Plates were washed with PBS-Tween 20 and then 100 μl of control or patient's serum was added to duplicate wells coated either with BSA alone or with estrogen or progesterone bound to BSA. […] Plates were incubated for 2 h (for IgG and IgM) and overnight (for IgE), and then washed four times with PBS-Tween 20. Alkaline-phosphatase-conjugated goat anti-human IgG, IgM or IgE F(ab′)2 fragment at optimal dilution of 1:700 (IgG); 1:500 (IgM) and 1:250 (IgE) was added to corresponding wells. The plates were then incubated for an additional 2 h at room temperature. After washing five times with TBS-Tween buffer, the enzyme reaction was started by adding 100 μl of para-nitrophenylphosphate in 0.1 mL of diethanolamine buffer (1 mg/ml) containing 1 mM MgCl2 and sodium azide, pH 9.8. The reaction was stopped 45 minutes later with 50 μl of 1 N NaOH. The optical density was read at 405 nm (OD405) with a microtiter reader. […] However, this non-specific O.D. was subtracted from wells coated with estrogen or progesterone bound to BSA.
(§2) For this, microtiter plates were coated with hormones and blocked by the addition of 2% BSA in PBST. 100 μl of serum diluent buffer was added to all wells. […] After a 60-minute incubation, 100 μl serum anti-estrogen or anti-progesterone was added to all wells. […] Results were calculated as a percentage of inhibition in antigen-antibody reaction.
(§3) To examine whether antibodies to estrogen or progesterone are specific or cross-reactive, competition ELISA was performed by adding specific and non-specific antigens in liquid phase and examined prevention of serum antibody binding to the antigen in solid phase. […] This cross-reaction between estrogen and progesterone antibodies may be due to structural similarities between these two hormones.

serum anti-estrogen IgE = assay: Competition ELISA: absorption of serum anti-estrogen IgE with specific and non-specific antigens; format: binding, human; conditions: for Percent inhibition of serum anti-estrogen IgE after absorption: absorption with 250 μg/mL antigen, NS = non-significant; for Inhibition of IgE anti-estrogen binding: antigen in liquid phase, range over the samples; for Absorption of serum IgE antibodies by antigen added to the liquid phase: competition ELISA, result in words
Procedure: as §1, §2, §3

Molecule	Symptoms on temporary discontinuation of therapy ([1]; ran out of drops, over a period of several days until therapy restarted)	Self-rated symptoms, generally, after over a year of therapy ([1]; scale of 1-10, 10 = worst, progesterone 1:10 sublingual daily, rated 5 before therapy)	Percent inhibition of serum anti-estrogen IgG after absorption (serum anti-estrogen IgG; Sample 1)	Percent inhibition of serum anti-estrogen IgG after absorption (serum anti-estrogen IgG; Sample 2)	Percent inhibition of serum anti-estrogen IgG after absorption (serum anti-estrogen IgG; Sample 3)	Inhibition of anti-estrogen binding to estrogen (IgG) (serum anti-estrogen IgG)	Absorption of serum IgG antibodies by antigen added to the liquid phase (serum anti-estrogen IgG)	Percent inhibition of serum anti-estrogen IgE after absorption (serum anti-estrogen IgE; Sample 1)	Percent inhibition of serum anti-estrogen IgE after absorption (serum anti-estrogen IgE; Sample 2)	Percent inhibition of serum anti-estrogen IgE after absorption (serum anti-estrogen IgE; Sample 3)	Inhibition of IgE anti-estrogen binding (serum anti-estrogen IgE)	Absorption of serum IgE antibodies by antigen added to the liquid phase (serum anti-estrogen IgE)
CC(=O)[C@H]1CC[C@H]2[C@@H]3CCC4=CC(=O)CC[C@]4(C)[C@H]3CC[C@]12C [progesterone]	steadily worsened	~2	–	–	–	–	–	–	–	–	–	–
Estrogen-BSA	–	–	(67%)	(59%)	(52%)	52-67%	significantly absorbed	(55%)	(54%)	(62%)	54-62%	significantly absorbed
Progesterone-BSA [Pn]	–	–	(52%)	(45%)	(41%)	41-52%	significantly absorbed	(37%)	(41&) %	(43%)	37-43%	significantly absorbed
bovine serum albumin [BSA]	–	–	–	–	–	–	did not absorb	–	–	–	–	did not absorb
B1	–	–	–	–	–	–	did not absorb	–	–	–	–	did not absorb
